Molecules are shown by their SMILES.

Test [1] deals with Isocitrate dehydrogenase [NADP] cytoplasmic (Homo sapiens) (UniProt O75874). In words: Inhibition of human IDH1 expressed in IPTG-induced Escherichia coli BL21 cells assessed as reduction of NADP+ to NADPH after 5 mins by spectrophotometry. More on the design: concentration or dose not given beside the values.
The subject of test [2] is Isocitrate dehydrogenase [NADP] cytoplasmic (Homo sapiens), O75874 [R132H]. As to the kind of experiment: Inhibition of human IDH1 R132H mutant expressed in IPTG-induced Escherichia coli BL21 cells assessed as oxidation of NADPH to NADP+ after 5 mins by spectrophotometry. More on the design: concentration or dose not given beside the values.

Sequence of Isocitrate dehydrogenase [NADP] cytoplasmic (Homo sapiens), O75874 [R132H] (O75874 whole entry R132H): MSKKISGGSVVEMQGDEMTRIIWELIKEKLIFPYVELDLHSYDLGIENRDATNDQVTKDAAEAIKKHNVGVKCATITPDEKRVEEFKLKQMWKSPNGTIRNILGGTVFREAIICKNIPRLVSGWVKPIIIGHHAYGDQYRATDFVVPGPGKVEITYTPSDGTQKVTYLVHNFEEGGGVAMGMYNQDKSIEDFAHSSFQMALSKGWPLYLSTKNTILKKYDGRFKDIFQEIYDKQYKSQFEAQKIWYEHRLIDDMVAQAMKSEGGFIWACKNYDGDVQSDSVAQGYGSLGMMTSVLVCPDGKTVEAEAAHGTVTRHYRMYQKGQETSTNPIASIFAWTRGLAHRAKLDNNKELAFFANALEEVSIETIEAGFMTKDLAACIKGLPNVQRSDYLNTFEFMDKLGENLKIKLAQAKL
Sequence of Isocitrate dehydrogenase [NADP] cytoplasmic (Homo sapiens) (O75874 whole entry): as the sequence (O75874 whole entry R132H) above, with H132R counted along it

Regarding `O=c1cc(-c2ccc(O)cc2)oc2cc(O)c(O)c(O)c12`, the Activity in test [1] worked out at 89%; in test [2], 92%.

Turning to `C/C=C(/C)C(=O)O[C@H]1Cc2c(cc3oc(C)cc(=O)c3c2O)OC1(C)C`, the Activity in test [1] came to 97.8%; in test [2] it was 105%.

As for `CC(C)=CCC[C@](C)(O[C@@H]1O[C@H](CO[C@@H]2O[C@H](CO)[C@@H](O)[C@H](O)[C@H]2O)[C@@H](O)[C@H](O)[C@H]1O)[C@H]1CC[C@]2(C)[C@@H]1[C@H](O)C[C@@H]1[C@@]3(C)CC[C@H](O[C@@H]4O[C@H](CO)[C@@H](O)[C@H](O)[C@H]4O[C@@H]4O[C@H](CO)[C@@H](O)[C@H](O)[C@H]4O)C(C)(C)[C@@H]3CC[C@]12C`, the Activity came to 117% in test [1] and 105% in test [2].

As to `C=C[C@]1(C)CC[C@@]2(C)C3=CCC[C@](C)(CO)[C@@H]3CC[C@@H]2C1`, the Activity in test [1] came to 106%; in test [2] it was 116%.

In the case of `C=C1CC[C@@H]2[C@](C)(CCC[C@]2(C)C(=O)O)[C@H]1CCc1ccoc1`, the Activity in test [1] worked out at 100%; in test [2], 92.8%.

For `C[C@H]1C(=O)CC[C@@H]2[C@]1(C)CC[C@H]1[C@@]2(C)CC[C@@]2(C)[C@@H]3CC(C)(C)CC[C@]3(C)CC[C@]12C`, the Activity stood at 104% in test [1] and 108% in test [2].

Turning to `O=c1cc(-c2ccccc2)oc2cc(O)cc(O)c12`, the Activity was determined as 97.6% in test [1] and 96.7% in test [2].

With `CC1(C)CC[C@]2(C)CC[C@]3(C)C(=CC[C@@H]4[C@@]5(C)[C@@H](O)C[C@H](O)C(C)(C)[C@@H]5CC[C@]43C)[C@@H]2C1`, the Activity in test [1] was 99.2%; in test [2], 111%.

For the compound `CC[C@H](/C=C/[C@@H](C)[C@H]1CC[C@H]2[C@@H]3CC=C4C[C@@H](O)CC[C@]4(C)[C@H]3CC[C@]12C)C(C)C`, the figures for the Activity in test [1] and in test [2] were 111% and 101%, respectively.

Turning to `CC[C@H](CC[C@@H](C)[C@H]1CC[C@H]2[C@@H]3CC=C4C[C@@H](O[C@@H]5O[C@H](CO)[C@@H](O)[C@H](O)[C@H]5O)CC[C@]4(C)[C@H]3CC[C@]12C)C(C)C`, the Activity in test [1] stood at 94.6%; in test [2] it was 103%.

For `C=C(C)[C@@H]1CC[C@]2(C(=O)O)CC[C@]3(C)[C@H](CC[C@@H]4[C@@]5(C)CC[C@H](O)C(C)(C)[C@@H]5CC[C@]43C)[C@@H]12`, the Activity worked out at 102% in test [1] and 112% in test [2].

In the case of `CC(C)=CCC[C@](C)(O[C@@H]1O[C@H](CO[C@@H]2O[C@H](CO)[C@@H](O)[C@H](O)[C@H]2O)[C@@H](O)[C@H](O)[C@H]1O)[C@H]1CC[C@]2(C)[C@@H]1[C@H](O)C[C@@H]1[C@@]3(C)CC[C@H](O[C@@H]4O[C@H](CO)[C@@H](O)[C@H](O)[C@H]4O)C(C)(C)[C@@H]3CC[C@]12C`, the values for the Activity in test [1] and in test [2] were 122% and 102%, respectively.

`C[C@@H](C(=O)O)[C@@]1(C)CC[C@H]2[C@@](C)(CC[C@@]3(C)[C@@H]4CC(C)(C)CC[C@]4(C)CC[C@]23C)[C@@H]1CC(=O)O`: the Activity in test [1] turned out to be 108%; in test [2], 90.9%.

On to `O=C(O[C@H]1[C@@H]2C=CO[C@@H](O[C@@H]3O[C@H](CO)[C@@H](O)[C@H](O)[C@H]3O)[C@@H]2[C@@]2(CO)O[C@@H]12)c1ccc(O)c(O)c1`, for which the Activity in test [1] was found to be 88.3%; in test [2] it was 107%.

Turning to `O=C(O)c1cc(O)c(O)c(O)c1`, the figures for the Activity in test [1] and in test [2] were 97.4% and 103%, respectively.

For the compound `O=c1cc(-c2ccc(O)c(O)c2)oc2cc(O)cc(O)c12`, the Activity is 96.8% in test [1] and 93.6% in test [2].

Regarding `CC1(C)CC[C@]2(C)CC=C3[C@]4(C)CC[C@H]5C(C)(C)[C@@H](O)CC[C@]5(C)[C@H]4CC[C@@]3(C)[C@@H]2C1`, the Activity in test [1] is 106%; in test [2] it was 109%.

Regarding `CC(C)=CCc1c(O)c(CC=C(C)C)c2oc3c(O)cccc3c(=O)c2c1O`, the Activity in test [1] turned out to be 92.8%; in test [2], 109%.

With `COc1c2c(cc3oc(C)cc(=O)c13)OC(C(C)(C)O[C@H]1O[C@@H](CO)[C@H](O)[C@@H](O)[C@@H]1O)C2` (stereo not given in full), the Activity turned out to be 107% in test [1] and 108% in test [2].

For the compound `CC(C)=CCOc1c2occc2cc2ccc(=O)oc12`, the Activity in test [1] came out at 99%; in test [2], 102%.

On to `O=c1c(O)c(-c2cc(O)c(O)c(O)c2)oc2cc(O)cc(O)c12`, for which the results for the Activity in test [1] and in test [2] were 95.5% and 93.2%, respectively.

For the compound `COc1ccc(-c2cc(=O)c3c(O)cc(O[C@@H]4O[C@H](COC5OC[C@@H](O)[C@H](O)[C@H]5O)[C@@H](O)[C@H](O)[C@H]4O)cc3o2)cc1O` (stereo not given in full), the Activity was determined as 104% in test [1] and 116% in test [2].

Consider `COc1ccc(-c2oc3c(CC=C(C)C)c(O[C@@H]4O[C@H](CO)[C@@H](O)[C@H](O)[C@H]4O)cc(O)c3c(=O)c2O[C@@H]2O[C@@H](C)[C@H](O)[C@@H](O)[C@H]2O)cc1`, for which the Activity in test [1] was determined as 90.4%; in test [2] it was 104%.

On to `CC1(C)CC[C@]2(C)CC[C@]3(C)C(=CC[C@@H]4[C@@]5(C)[C@@H](O)C[C@H](O)C(C)(C)[C@@H]5[C@H](O)C[C@]43C)[C@@H]2C1`, for which the Activity in test [1] turned out to be 98.6%; in test [2], 99%.

As to `C[C@H]1[C@@H](O)CC[C@@H]2[C@]1(C)CC[C@H]1[C@@]2(C)CC[C@@]2(C)[C@@H]3CC(C)(C)CC[C@]3(C)CC[C@]12C`, the Activity in test [1] stood at 109%; in test [2], 113%.

With `C[C@H]1[C@H](C)CC[C@]2(C(=O)O)CC[C@]3(C)C(=CC[C@@H]4[C@@]5(C)CC[C@H](O)C(C)(C)[C@@H]5CC[C@]43C)[C@H]12`, the Activity in test [1] worked out at 102%; in test [2] it was 114%.

As to `CC[C@H](CC[C@@H](C)[C@H]1CC[C@H]2[C@@H]3CC=C4C[C@@H](O)CC[C@]4(C)[C@H]3CC[C@]12C)C(C)C`, the results for the Activity in test [1] and in test [2] were 105% and 98.8%, respectively.

On to `COc1ccc(-c2cc(=O)c3c(O)cc(O[C@@H]4O[C@H](CO)[C@@H](O)[C@H](O)[C@H]4O)cc3o2)cc1O`, for which the Activity in test [1] came to 108%; in test [2], 112%.

For the compound `O=C1C[C@@H](c2ccc(O)cc2)Oc2cc(O)cc(O)c21`, the values for the Activity in test [1] and in test [2] were 102% and 109%, respectively.

In the case of `C[C@H]1[C@H](C)CC[C@]2(C)CC[C@]3(C)C(=CC[C@@H]4[C@@]5(C)CC[C@H](O)C(C)(C)[C@@H]5CC[C@]43C)[C@H]12`, the Activity was determined as 105% in test [1] and 112% in test [2].

Consider `O=c1c(O)c(-c2ccccc2)oc2cc(O)cc(O)c12`, for which the Activity was 89.1% in test [1] and 95% in test [2].

In the case of `CC1(C)CC[C@]2(C(=O)O)CC[C@]3(C)C(=CC[C@@H]4[C@@]5(C)CC[C@H](O)C(C)(C)[C@@H]5CC[C@]43C)[C@@H]2C1`, the results for the Activity in test [1] and in test [2] were 101% and 117%, respectively.

`COc1c2c(cc3oc(CO[C@@H]4O[C@H](CO)[C@@H](O)[C@H](O)[C@H]4O)cc(=O)c13)O[C@H](C(C)(C)O)C2`: the figures for the Activity in test [1] and in test [2] were 96.8% and 112%, respectively.

Turning to `COc1c2c(cc3oc(C)cc(=O)c13)OC(C(C)(C)O)C2` (stereo not given), the Activity turned out to be 103% in test [1] and 105% in test [2].

`CC1(C)CC[C@]2(C(=O)O)CC=C3[C@]4(C)CC[C@H]5C(C)(C)[C@@H](O)CC[C@]5(C)[C@H]4CC[C@@]3(C)[C@@H]2C1`: the results for the Activity in test [1] and in test [2] were 103% and 113%, respectively.

`COc1ccc(C(=O)O[C@H]2[C@@H]3C=CO[C@@H](O[C@@H]4O[C@H](CO)[C@@H](O)[C@H](O)[C@H]4O)[C@@H]3[C@@]3(CO)O[C@@H]23)cc1OC`: the Activity in test [1] was determined as 107%; in test [2], 97.7%.

Take `CC1(C)CC[C@]2(C)CC[C@]3(C)C(=CC[C@@H]4[C@@]5(C)CC[C@H](O)C(C)(C)[C@@H]5[C@H](O)C[C@]43C)[C@@H]2C1`: the results for the Activity in test [1] and in test [2] were 102% and 114%, respectively.

Turning to `O=c1c(O)c(-c2ccc(O)cc2)oc2cc(O)cc(O)c12`, the Activity in test [1] turned out to be 104%; in test [2] it was 112%.

In the case of `COc1ccc(C(=O)O[C@H]2[C@@H]3C=CO[C@@H](O[C@@H]4O[C@H](CO)[C@@H](O)[C@H](O)[C@H]4O)[C@@H]3[C@@]3(CO)O[C@@H]23)cc1O`, the Activity in test [1] amounted to 102%; in test [2] it was 103%.

In the case of `COc1ccc(/C=C/C(=O)O[C@H]2[C@@H]3C=CO[C@@H](O[C@@H]4O[C@H](CO)[C@@H](O)[C@H](O)[C@H]4O)[C@@H]3[C@@]3(CO)O[C@@H]23)cc1O`, the Activity in test [1] worked out at 107%; in test [2], 108%.

Regarding `COc1ccc(-c2oc3c(CC=C(C)C)c(O)cc(O)c3c(=O)c2O)cc1`, the Activity in test [1] was found to be 97.9%; in test [2], 94.6%.

With `COc1c(O)cc2oc3cc4c(c(O)c3c(=O)c2c1CC=C(C)C)C=CC(C)(C)O4`, the Activity is 109% in test [1] and 98.7% in test [2].

In the case of `O=C(/C=C/c1ccc(O)cc1)c1ccc(O)cc1O`, the Activity in test [1] was 94.6%; in test [2], 98.1%.

As for `CCCCCCCCCCCCC/C=C1/C(=O)O[C@H](C)[C@@H]1O`, the values for the Activity in test [1] and in test [2] were 111% and 114%, respectively.

As for `C=C1CC[C@@H]2[C@H]([C@H]3[C@H]1CC[C@]3(C)O)C2(C)C`, the Activity in test [1] worked out at 106%; in test [2], 107%.

As to `C=CCc1cc(OC)c(O)c(OC)c1`, the Activity in test [1] worked out at 101%; in test [2], 104%.

Consider `COc1c(O)cc2oc3cc(O)c4c(c3c(=O)c2c1CC=C(C)C)OC(C)(C)CC4`, for which the figures for the Activity in test [1] and in test [2] were 100% and 106%, respectively.

Consider `C/C=C(/C)C(=O)O[C@H]1Cc2c(cc3oc(CO)cc(=O)c3c2O)OC1(C)C`, for which the Activity in test [1] was determined as 102%; in test [2] it was 108%.

As to `CC(C)CCC[C@@H](C)[C@H]1CC[C@H]2[C@@H]3CC=C4C[C@@H](O)CC[C@]4(C)[C@H]3CC[C@]12C`, the Activity in test [1] was determined as 105%; in test [2], 96.3%.

For the compound `O=c1cc(-c2ccc(O)cc2)oc2cc(O)cc(O)c12`, the Activity in test [1] is 97.4%; in test [2], 84%.

Values taken from ChEMBL document CHEMBL3632508, “Discovery of α-mangostin as a novel competitive inhibitor against mutant isocitrate dehydrogenase-1” (Bioorg Med Chem Lett, 2015).
